Publication PMC5159840, “A Clickable Analogue of Ketamine Retains NMDA Receptor Activity, Psychoactivity, and Accumulates in Neurons” (Scientific Reports, 2016)

What was measured:
NMDA receptor (NMDAR) [1] = tested on: T1, NMDA receptor (NMDAR); experiment: whole-cell patch clamp of NMDA-evoked currents, concentration-response at -70 mV; also NMDAR EPSCs; assay type: cell-based, Rattus norvegicus
T1 construct: gene Grin1; native receptor in dissociated cultures of rat hippocampal neurons

NMDA receptor (NMDAR) [2] = tested on: T1, NMDA receptor (NMDAR); experiment: whole-cell patch clamp of NMDA-evoked currents, concentration-response at -70 mV; assay type: cell-based, Rattus norvegicus

Row | SMILES | IC50 (NMDA receptor (NMDAR) [1]) | IC50 (NMDA receptor (NMDAR) [2])
1 | C#CCCCNC1(c2ccccc2Cl)CCCCC1=O (racemic) [compound 1, A-NK] | 1800 nM | –
2 | CNC1(c2ccccc2Cl)CCCCC1=O (racemic) [ketamine] | – | 400 nM
3 | NC1(c2ccccc2Cl)CCCCC1=O (racemic) [norketamine] | 2000 nM | –
